Experimental data from patent publication US20080032965A1, “Method for enhancing cognitive function” (priority 2006, published 2008).
Read-outs that look alike come from different tables or passages of the source.

Legend:
5-HT1A = target: T1, 5-HT1A (Homo sapiens, UniProt P08908)
T1 sequence (P08908 1-422): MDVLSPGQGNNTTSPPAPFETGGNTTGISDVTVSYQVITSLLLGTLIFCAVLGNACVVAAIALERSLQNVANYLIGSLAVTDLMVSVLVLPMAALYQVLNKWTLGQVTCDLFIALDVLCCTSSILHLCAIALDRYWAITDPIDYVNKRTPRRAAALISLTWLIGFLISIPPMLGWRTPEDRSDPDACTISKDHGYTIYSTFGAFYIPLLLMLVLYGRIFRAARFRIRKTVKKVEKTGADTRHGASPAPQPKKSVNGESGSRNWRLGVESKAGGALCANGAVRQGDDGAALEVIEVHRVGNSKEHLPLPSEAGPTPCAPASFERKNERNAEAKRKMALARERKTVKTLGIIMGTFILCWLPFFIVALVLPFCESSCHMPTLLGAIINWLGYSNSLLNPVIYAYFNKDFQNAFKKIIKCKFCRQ

D2 = D2 (Homo sapiens, UniProt P14416); settings: read-out: Ki (nM) D2; Table 2; cited from earlier work
a1 = settings: Table 2; cited from earlier work
recognition memory [1] = test: Novel Object Recognition Model (Example 1); assay type: in vivo, rats; settings: for effect on the cognitive enhancing properties of Aricept in the Novel Object Recognition Model: co-administered with Aricept, lowers dose of both agents required for efficacy
Method: (§1) Novel Object Recognition Model: Male Long-Evans hooded rats (˜200 g at the time of testing) were individually housed with ad libitum access to food and water. Novel object recognition (NOR) training and testing was performed in a circular field (diameter ˜70 cm, 30 cm high) constructed out of plastic and containing soiled bedding (without feces). The field was surrounded by black curtains to mask extra-field cues and was located in a dimly lit room (˜10 lux at the level of the area) in the presence of white noise (˜65 dB). Animal performance was tracked by video and monitored by an experimenter located outside of the testing room. Objects, constructed with Duplo® blocks (Lego), could be affixed to the floor in one of four locations spaced evenly around the field approximately 10 cm from the field's edge. To avoid possible olfactory cues, multiple copies of the objects were used throughout the study and were cleaned with a 30% ethanol solution between animals.
The visual recognition task was divided into 3 sessions—habituation, a sample trial and a choice trial. During habituation the animals were placed into the field containing 2 identical yellow cubes (˜10 cm×10 cm×10 cm) and were allowed to explore the field for ten minutes. Following habituation, rats were returned to their home cage. One day after habituation, animals were dosed with drug (either a 5-HT1A antagonist compound, a cognitive enhancer or both a 5-HT1A antagonist compound and a cognitive enhancer) and following the pretreatment interval the sample trial was initiated. […] The amount of time investigating the objects was recorded for the entire trial. […]
(§2) The effect of treatment on object exploration during trial one was examined using a one-way ANOVA on total contact time followed by Fisher's LSD group mean pair-wise comparisons. The amount of time exploring the novel and familiar objects across treatment groups was analyzed using a repeated measures ANOVA followed by Fisher's LSD post-hoc comparisons. […]

recognition memory [2] = test: Novel Object Recognition, Compound 405 with Aricept (Example 2); assay type: in vivo, mice; settings: compared between vehicle, Aricept 0.5 mg/kg, Compound 405 0.3 mg/kg and combination groups
Method: as §1, with “Objects, constructed with Duplo® blocks (Lego), could be affixed to the floor in one of four locations spaced evenly around the field approximately 10 cm from the field's edge. To avoid possible olfactory cues, multiple copies of the objects were used throughout the study and were cleaned with a 30% ethanol solution between animals.” left out
The visual recognition task was divided into 3 sessions—habituation, a sample trial and a choice trial. […] The amount of time investigating the objects was recorded for the entire trial. […]
as §2
Cognitive enhancement was measured using the Novel Object Recognition procedure described in Example 1. […]

5-HT2A = 5-HT2A (Homo sapiens, UniProt P28223); settings: read-out: Ki (nM) 5-HT2A; Table 1; cited from earlier work
*1^A = settings: Table 4; cited from earlier work
[3] = read-out: Ki (nM) 5-HT1A; Table 2; cited from earlier work
[4] = Table 3; read-out: IC50 (nM) 5-HT1A; cited from earlier work
[5] = Table 2; read-out: Ki (nM) 5-HT1A; cited from earlier work
[6] = read-out: Ki (nM) 5-HT1A; Table 4; cited from earlier work

Sequence of D2 (P14416 whole entry): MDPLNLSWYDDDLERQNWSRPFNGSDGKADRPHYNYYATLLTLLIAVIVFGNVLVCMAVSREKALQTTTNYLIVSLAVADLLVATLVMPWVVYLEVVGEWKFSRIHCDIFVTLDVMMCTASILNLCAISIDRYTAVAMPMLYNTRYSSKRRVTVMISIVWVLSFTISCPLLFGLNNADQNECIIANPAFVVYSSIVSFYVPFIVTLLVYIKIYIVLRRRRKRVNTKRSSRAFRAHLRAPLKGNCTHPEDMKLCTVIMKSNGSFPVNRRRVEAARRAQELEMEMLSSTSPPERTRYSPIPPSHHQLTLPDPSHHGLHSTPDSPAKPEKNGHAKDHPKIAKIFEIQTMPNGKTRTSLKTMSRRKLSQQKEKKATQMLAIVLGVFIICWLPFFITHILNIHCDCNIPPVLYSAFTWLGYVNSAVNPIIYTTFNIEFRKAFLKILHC
Sequence of 5-HT2A (P28223 whole entry): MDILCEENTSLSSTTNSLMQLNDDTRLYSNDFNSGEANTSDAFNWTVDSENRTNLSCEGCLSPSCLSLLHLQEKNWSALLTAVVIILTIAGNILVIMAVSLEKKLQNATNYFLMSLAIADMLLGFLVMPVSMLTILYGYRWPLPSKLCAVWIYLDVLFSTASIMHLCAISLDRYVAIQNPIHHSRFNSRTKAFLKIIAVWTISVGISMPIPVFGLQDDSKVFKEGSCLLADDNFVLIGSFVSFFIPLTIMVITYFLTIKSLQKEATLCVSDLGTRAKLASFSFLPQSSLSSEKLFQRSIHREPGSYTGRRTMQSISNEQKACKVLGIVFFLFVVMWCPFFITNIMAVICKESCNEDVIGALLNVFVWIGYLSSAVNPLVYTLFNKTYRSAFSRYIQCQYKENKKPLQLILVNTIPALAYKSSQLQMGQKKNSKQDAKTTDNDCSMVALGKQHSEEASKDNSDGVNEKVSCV

**Q.** With `COc1ccccc1N1CCN(CC(C(=O)NC(C)(C)C)c2ccccc2)CC1` (racemic) [Compound Y (R)] as the molecule, how does the Ki (5-HT1A; [3]) read?
**A.** 104 nM

**Q.** What about the Ki (D2) of the same molecule?
**A.** 4 nM

**Q.** And the Ki (a1)?
**A.** 1240 nM

**Q.** For `COc1ccccc1N1CCN(CC(C(=O)NC(C)(C)C)c2ccccc2)CC1` (racemic) [Compound Y (S)], which Ki (5-HT1A; [3]) is on record?
**A.** 22 nM

**Q.** And the Ki (D2)?
**A.** 20 nM

**Q.** What about the Ki (a1) of the same molecule?
**A.** 1440 nM

**Q.** What does the source list for `COc1ccccc1N1CCN(CC(C(=O)NC(C)(C)C)c2ccccc2)CC1` (racemic) [Compound Y (±)]?
**A.** Ki (5-HT1A; [3]): 20 nM; Ki (D2): 14 nM; Ki (a1): 718 nM

**Q.** Which “effect on the cognitive enhancing properties of Aricept in the Novel Object Recognition Model” value (recognition memory [1]) does the source give for `COc1cc(N2CCN(C3CCN(c4ccc(F)c5c(OC)cc(C(F)(F)F)nc45)CC3)CC2)c2ncccc2c1` [5-fluoro-4-methoxy-8-(4-(4-(6-methoxyquinolin-8-yl)piperazin-1-yl)piperidin-1-yl)-2-(trifluoromethyl)quinoline] here?
**A.** synergistic effect

**Q.** Which “effect on the cognitive enhancing properties of Aricept in the Novel Object Recognition Model” value (recognition memory [1]) does the source give for `COc1cc(N2CCN(C3CCN(c4ccc(F)c5cccnc45)CC3)CC2)c2ncccc2c1` [5-fluoro-8-(4-(4-(6-methoxyquinolin-8-yl)piperazin-1-yl)piperidin-1-yl)quinoline] here?
**A.** synergistic effect

**Q.** Which results are given for `COc1cc2c(cc1OC)C(=O)C(CC1CCN(Cc3ccccc3)CC1)C2` (stereo not shown) [Aricept®, donepezil]?
**A.** contact times familiar vs novel, administered separately (recognition memory [1]; sub-threshold doses: Aricept 0.5 mg/kg i.p. or 5-HT1A antagonist 0.1 mg/kg p.o., 48 hour inter-trial interval): not statistically different; exploration time (FIG. 1) (recognition memory [2]): relatively similar

**Q.** With `O=c1ccc(=O)n(-c2ccccc2)n1CCCCN1CCN(c2cccc(Cl)c2)CC1` [Compound 104] as the molecule, how does the Ki (5-HT2A) read?
**A.** 1830 nM

**Q.** For `COc1ccccc1N1CCN(CCCn2c(=O)ccc(=O)n2-c2ccccc2)CC1` [Compound 105], which Ki (5-HT2A) is on record?
**A.** 2120 nM

**Q.** Which results are given for `COc1ccccc1N1CCN(CCCCn2c(=O)ccc(=O)n2-c2ccccc2)CC1` [Compound 106]?
**A.** Ki (5-HT1A; read-out: Ki (nM) 5-HT1A; Table 1; cited from earlier work): 51 nM; Ki (5-HT2A): 1450 nM

**Q.** With `OC1(c2ccc3c(c2)OCO3)CCC(N2CCN(Cc3ccccc3)CC2)CC1` (stereo not shown) [Compound 112] as the molecule, how does the IC50 (5-HT1A; [4]) read?
**A.** 20 nM

**Q.** Which IC50 (5-HT1A; [4]) does the source give for `COc1ccc(C2(O)CCC(N3CCN(Cc4ccccc4)CC3)CC2)cc1` (stereo not shown) [Compound 113] here?
**A.** 50 nM

**Q.** With `COc1cccc(CN2CCN(C3CCC(O)(c4ccc5c(c4)OCO5)CC3)CC2)c1` (stereo not shown) [Compound 114] as the molecule, how does the IC50 (5-HT1A; [4]) read?
**A.** 2.2 nM

**Q.** What does the source list for `COc1ccccc1N1CCN(CC(C(=O)NC2CCCCC2)c2ccccc2)CC1` (stereo not shown) [Compound 118]?
**A.** Ki (5-HT1A; [3]): 10 nM; Ki (a1): 1870 nM

**Q.** With `O=C(C1CCCCC1)N(CN1CCN(c2ccccc2O)CC1)c1ccccn1` [Compound 119] as the molecule, how does the IC50 (5-HT1A; Table 2, starred value; read-out: 5-HT1A, data expressed as IC50 value (*); cited from earlier work) read?
**A.** 2.1 nM

**Q.** With `CS(=O)(=O)Oc1ccccc1N1CCN(CN(C(=O)C2CCCCC2)c2ccccn2)CC1` [Compound 122] as the molecule, how does the Ki (5-HT1A; [5]) read?
**A.** 7.25 nM

**Q.** For `O=C(C1CCCCC1)N(CN1CCN(c2ccccc2OS(=O)(=O)C(F)(F)F)CC1)c1ccccn1` [Compound 123], which Ki (5-HT1A; [5]) is on record?
**A.** 36 nM

**Q.** With `COc1ccccc1N1CCN(CCN(C(=O)c2ccc(I)cc2)c2ccccn2)CC1` [Compound 124] as the molecule, how does the Ki (5-HT1A; [3]) read?
**A.** 2.6 nM

**Q.** And the Ki (D2)?
**A.** 19 nM

**Q.** What about the Ki (a1) of the same molecule?
**A.** 35 nM

**Q.** Which Ki (5-HT1A; [5]) does the source give for `COc1ccccc1N1CCN(CCN(C(=O)c2cccc(I)c2)c2ccccn2)CC1` [Compound 125] here?
**A.** 1.7 nM

**Q.** With `COc1ccccc1N1CCN(CCN(C(=O)c2ccc(F)cc2)c2ccccn2)CC1` [Compound 127] as the molecule, how does the Ki (5-HT1A; [5]) read?
**A.** 3.3 nM

**Q.** For `COc1ccccc1N1CCN(CCCSc2nc3sc4c(c3c(=O)n2N)CCC4)CC1` [Compound 129], which Ki (5-HT1A; [6]) is on record?
**A.** 9.26 nM

**Q.** And the Ki (*1^A)?
**A.** 7.39 nM

**Q.** With `COc1ccccc1N1CCN(CCCSc2nc(N)c3c(C)c(C)sc3n2)CC1` [Compound 135] as the molecule, how does the Ki (5-HT1A; [6]) read?
**A.** 2.45 nM

**Q.** And the Ki (*1^A)?
**A.** 10.8 nM

**Q.** With `CCOc1ccccc1-c1nnc(SCCCN2CCN(c3ccccc3[N+](=O)[O-])CC2)s1` [Compound 137] as the molecule, how does the Ki (5-HT1A; [6]) read?
**A.** 135 nM

**Q.** And the Ki (*1^A)?
**A.** 437 nM

**Q.** With `C[C@H](CN(C(=O)C1CCCCC1)c1ccccn1)N1CCN(c2cccc3[nH]ccc23)CC1` [Compound 405, (R)-N-(2-methyl-(4-indolyl-1-piperazinyl)ethyl)-N-(2-pyridinyl)cyclohexane carboxamide] as the molecule, how does the “exploration time (FIG. 1)” value (recognition memory [2]) read?
**A.** relatively similar

**Q.** With `COc1ccccc1N1CCN(CN(C(=O)C2CCCCC2)c2ccccn2)CC1` [Compound X] as the molecule, how does the Ki (5-HT1A; [3]) read?
**A.** 0.24 nM

**Q.** What about the Ki (D2) of the same molecule?
**A.** 79 nM

**Q.** And the Ki (a1)?
**A.** 45 nM
